From US20150056702A1, “METHOD AND KIT FOR CULTURING STEM CELLS” (China Medical University, priority 2013, published 2015)

Experiments:
Assay type in all cases: cell-based, mouse
ES cells = experiment: Alkaline phosphatase staining of ES cells
Method: The following steps were conducted in order to culture ES cells: • (1) preparing a stem cell medium: DMEM+15% heat-inactivated FBS+NEAA (0.1 mM)+L-glutamine (2 mM)+β-mercaptoethanol (0.2 mM); • (2) preparing a BP-containing solution: dissolving BP into DMSO to form a BP-containing solution (100 mg/ml), and storing the solution at −20° C.; • (3) adding different amounts of the BP-containing solution in step (2) into the stem cell medium in step (1) to form different BP-containing mediums, wherein the amount of BP were about 5, 10, 20 or 40 μg per milliliter of the stem cell medium respectively (i.e. the experimental group mediums: BP5, BP10, BP20 and BP40); and • (4) using the BP-containing medium of in step (3) to culture a ES cell (retrieved from the embryos in the blastula stage of 129sv/J mice) at 37° C., 5% CO2 and 95% humidity on the feeder cells provided by Example 1.
The following procedure was conducted in proper order to culture the ES cells: • (1) preparing a stem cell medium: • LIF-containing medium (without BP): DMEM+15% heat-inactivated FBS+NEAA (0.1 mM)+L-glutamine (2 mM)+(3-mercaptoethanol (0.2 mM)+LIF (4 ng/ml); and • control medium (without BP): DMEM+15% heat-inactivated FBS+NEAA (0.1 mM)+L-glutamine (2 mM)+β-mercaptoethanol (0.2 mM); • (2) using the medium in step (1) to culture a ES cell (retrieved from embryos in the blastula stage of 129sv/J mice) at 37° C., 5% CO2 and 95% humidity on the feeder cells provided by Example 1.
Alkaline phosphatase is a marker protein of stem cells. The activity measured by staining could be used to determine if BP can effectively maintain the self-renewal and/or pluripotency of stem cells.
An experimental group medium (BP5, BP10, BP20 or BP40), a LIF-containing medium (without BP) and a control group medium (without BP) were used respectively to culture ES cells in a 6-well culture dish with an initial density of 1×10^4 per well for 72 hours. The medium was removed and the cells were washed two times with PBS. Next, PBS was removed, and 1 ml of 80% ethanol was added into each well to perform the fixation at 4° C. for 2 to 24 hours. Next, ethanol was removed, and then the cells were washed one time with distilled water. The distilled water was added again to soak the cells for 2 to 3 minutes, and then be removed. Next, the cells were soaked with a Tris-HCl buffer (100 mM, pH 8.2 to 8.5) at room temperature for 5 minutes, and then, the buffer was removed. Next, a Leukocyte Alkaline Phosphatase kit (Vector) was used to perform the staining for 20 to 30 minutes, and then the Alkaline Phosphatase Substrate working solution was removed, the cells were soaked and washed by Tris-HCl buffer (100 mM, pH 8.2 to 8.5) and then be observed by a fluorescent microscope to count the number of the AP-positive clones. The undifferentiated ES cells with a higher activity show a red color, while the differentiated ES cells with a lower activity show a weak red color or are even colorless.

EPO = experiment: Real-time PCR, cytokine gene EPO in ES cells; settings: for EPO mRNA expression level: ES cells, control group = 100%
Method: (§1) An experimental group medium (BP5, BP10, BP20 or BP40) and a control group medium (without BP) were added respectively to perform the following steps. ES cells were cultured with an initial density of 1×10^4 per well in a 6-well culture dish. The medium was removed until the cells growth to be about 70 to 80% confluence, and then 1 ml TRIzol (Invitrogen) was added into each well. The cells were incubated for 5 minutes, and then was scraped by a spatula and placed into a 1.5 ml microtube to be lysed adequately. Chloroform (0.2 ml) was added into the microtubes. The mixture was shaken up and down for 15 seconds, and then incubated at room temperature for 2 to 3 minutes. Thereafter, the mixture was centrifuged at 12000 rpm at 4° C. for 15 minutes, and the supernatant was removed into another 1.5 ml microtube and isopropanol (0.5 ml) was added into the microtube with well mixing. The mixture was incubated at room temperature for 10 minutes and then centrifuged at 12000 rpm at 4° C. for 10 minutes. The supernatant was then removed. One ml of 70% ethanol containing DEPC.H2O was used to wash the remaining sediment. The sediment was centrifuged at 7500 rpm at 4° C. for 5 minutes. The supernatant was removed. The sediment was dried by vacuum suction. The dried samples were dissolved in about 0.01 to 0.02 ml of DEPC.H2O to obtain the experimental group RNA and control group RNA. Both groups were stored at −80° C.
(§2) The OD value of RNA samples in both groups obtained from the above Experiment I were measured at a wavelength of 260 nm (RNA: OD260=1 for a 40 μg/mL solution). Each RNA sample (2 μl) was added with RNA-free water until the volume of the sample reached 10 μl. Two μl oligo (dT) (100 μg/ml) was added into each sample, and the samples were incubated at 65° C. for 5 minutes. Then, the samples were immediately placed on ice and spun down. Next, 6.5 μl of a reaction solution [4 μl of 5× buffer+1 μl of 0.1 M DTT+1 μl of RNase out+0.5 μl of SSIII (Invitrogen)] was added into each of the samples, and the samples were incubated at 50° C. for about 30 to 60 minutes and at 75° C. for 15 minutes to obtain the experimental group cDNA and control group cDNA. Both groups were stored at −80° C.
(§3) This experiment was used to detect the expression levels of ES cell-related genes, i.e., Oct4 and Sox2, etc. First, 4 μl of the experimental group cDNA or control group cDNA was added into each well of a 96-well micro-reaction plate, and mixed with 6 μl of a reaction solution [0.5 μl of 6 μM forward primer+0.5 μl of 6 μM reverse primer+5 μl of SYBR Green PCR Master mix (Roche)], wherein the SYBR Green PCR Master mix included the reagents needed for Q-PCR, such as dNTPs, MgCl, Taq DNA polymerase and 2×SYBR® Green I solution. […] The cycle threshold (CT) values were measured. […]

IL11 = experiment: Real-time PCR, cytokine gene IL11 in ES cells; settings: for IL11 mRNA expression level: ES cells, control group = 100%
Method: as §1, §2, §3

[1] = BP10 medium (about 10 μg BP/ml)
[2] = BP-containing ES cell medium, result in words
[3] = LIF-containing medium (LIF 4 ng/ml)

Row | Molecule | AP-positive clones (ES cells; BP5 medium (about 5 μg BP/ml), ES cells, 72 hours, control group = 100%) | AP-positive clones (ES cells; BP10 medium (about 10 μg BP/ml), ES cells, 72 hours, control group = 100%) | AP-positive clones (ES cells; BP20 medium (about 20 μg BP/ml), ES cells, 72 hours, control group = 100%) | AP-positive clones (ES cells; BP40 medium (about 40 μg BP/ml), ES cells, 72 hours, control group = 100%) | AP-positive clones (ES cells; BP-containing ES cell medium vs control group (without BP), result in words) | EPO mRNA expression level (EPO; BP5 medium (about 5 μg BP/ml)) | EPO mRNA expression level (EPO; [1]) | mRNA expression level of EPO (EPO; [2]) | IL11 mRNA expression level (IL11; BP5 medium (about 5 μg BP/ml)) | IL11 mRNA expression level (IL11; [1]) | mRNA expression level of IL-11 (IL11; [2]) | AP-positive clones (ES cells; LIF-containing medium (LIF 4 ng/ml, without BP), ES cells, 72 hours, control group = 100%) | EPO mRNA expression level (EPO; [3]) | IL11 mRNA expression level (IL11; [3])
1 | CCCC=C1OC(=O)c2ccccc21 [BP, n-butylidenephthalide] | 91% | 116% | 116% | 117% | more AP-positive clones | 97% | 196% | significantly up-regulated | 93% | 191% | significantly up-regulated | – | – | –
2 | LIF: multifunctional cell factor used to maintain pluripotency of stem cells; LIF-containing medium (4 ng/ml, without BP) as comparison | – | – | – | – | – | – | – | – | – | – | – | 110% | 91% | 99%
